Measurements reported in ChEMBL document CHEMBL3862012, “Methylene versus carbonyl bridge in the structure of new tubulin polymerization inhibitors with tricyclic A-rings” (Bioorg Med Chem, 2016).

Legend:
[1] = Cytotoxicity against human HOP92 cells assessed as growth inhibition after 48 hrs by SRB assay; assay type: functional; details: HOP-92, 48 h
[2] = Cytotoxicity against human OVCAR5 cells assessed as growth inhibition at 10 uM after 48 hrs by SRB assay relative to control; assay type: functional; details: OVCAR-5, 48 h, read-out: GI
[3] = Cytotoxicity against human Hs 578T cells assessed as growth inhibition at 10 uM after 48 hrs by SRB assay relative to control; assay type: functional; details: read-out: GI
[4] = Cytotoxicity against human RXF393 cells assessed as growth inhibition after 48 hrs by SRB assay; assay type: functional; details: RXF 393, 48 h
[5] = Cytotoxicity against human SF539 cells assessed as growth inhibition at 10 uM after 48 hrs by SRB assay relative to control; assay type: functional; details: SF-539, 48 h, read-out: GI
[6] = Inhibition of sheep brain tubulin polymerization by DAPI staining-based fluorimetric method; design: species or system Ovis aries
[7] = Cytotoxicity against human HCT116 cells assessed as growth inhibition after 48 hrs by SRB assay; assay type: functional; details: HCT-116, 48 h
[8] = Cytotoxicity against human EKVX cells assessed as growth inhibition after 48 hrs by SRB assay; assay type: functional
[9] = Cytotoxicity against human UACC62 cells assessed as growth inhibition at 10 uM after 48 hrs by SRB assay relative to control; assay type: functional; details: UACC-62, 48 h, read-out: GI
[10] = Cytotoxicity against human SF268 cells assessed as growth inhibition at 10 uM after 48 hrs by SRB assay relative to control; assay type: functional; details: SF-268, 48 h, read-out: GI
[11] = Cytotoxicity against human SR cells assessed as growth inhibition after 48 hrs by SRB assay; assay type: functional
[12] = Cytotoxicity against human HL-60(TB) cells assessed as growth inhibition at 10 uM after 48 hrs by SRB assay relative to control; assay type: functional; details: HL-60, 48 h, read-out: GI
[13] = Cytotoxicity against human SN12C cells assessed as growth inhibition after 48 hrs by SRB assay; assay type: functional
[14] = Cytotoxicity against human SF295 cells assessed as growth inhibition after 48 hrs by SRB assay; assay type: functional; details: SF-295, 48 h
[15] = Cytotoxicity against human MCF7 cells assessed as growth inhibition at 10 uM after 48 hrs by SRB assay relative to control; assay type: functional; details: MCF7, 48 h, read-out: GI
[16] = Cytotoxicity against human K562 cells assessed as growth inhibition after 48 hrs by SRB assay; assay type: functional; details: K562, 48 h
[17] = Cytotoxicity against human T47D cells assessed as growth inhibition at 10 uM after 48 hrs by SRB assay relative to control; assay type: functional; details: read-out: GI
[18] = Cytotoxicity against human ACHN cells assessed as growth inhibition after 48 hrs by SRB assay; assay type: functional
[19] = Cytotoxicity against human NCI-H522 cells assessed as growth inhibition after 48 hrs by SRB assay; assay type: functional; details: NCI-H522, 48 h
[20] = Cytotoxicity against human HOP92 cells assessed as growth inhibition at 10 uM after 48 hrs by SRB assay relative to control; assay type: functional; details: HOP-92, 48 h, read-out: GI
[21] = Cytotoxicity against human NCI-H522 cells assessed as growth inhibition at 10 uM after 48 hrs by SRB assay relative to control; assay type: functional; details: NCI-H522, 48 h, read-out: GI
[22] = Cytotoxicity against human HCC2998 cells assessed as growth inhibition after 48 hrs by SRB assay; assay type: functional; details: HCC 2998, 48 h
[23] = Cytotoxicity against human IGROV1 cells assessed as growth inhibition at 10 uM after 48 hrs by SRB assay relative to control; assay type: functional; details: IGROV-1, 48 h, read-out: GI
[24] = Cytotoxicity against human ACHN cells assessed as growth inhibition at 10 uM after 48 hrs by SRB assay relative to control; assay type: functional; details: read-out: GI
[25] = Cytotoxicity against human SK-MEL-5 cells assessed as growth inhibition at 10 uM after 48 hrs by SRB assay relative to control; assay type: functional; details: SK-MEL-5, 48 h, read-out: GI
[26] = Cytotoxicity against human SW620 cells assessed as growth inhibition at 10 uM after 48 hrs by SRB assay relative to control; assay type: functional; details: SW-620, 48 h, read-out: GI
[27] = Cytotoxicity against human HT-29 cells assessed as growth inhibition after 48 hrs by SRB assay; assay type: functional; details: HT-29, 48 h
[28] = Cytotoxicity against human HCC2998 cells assessed as growth inhibition at 10 uM after 48 hrs by SRB assay relative to control; assay type: functional; details: HCC 2998, 48 h, read-out: GI
[29] = Cytotoxicity against human OVCAR8 cells assessed as growth inhibition after 48 hrs by SRB assay; assay type: functional; details: OVCAR-8, 48 h
[30] = Cytotoxicity against human SK-MEL-2 cells assessed as growth inhibition at 10 uM after 48 hrs by SRB assay relative to control; assay type: functional; details: SK-MEL-2, 48 h, read-out: GI
[31] = Cytotoxicity against human OVCAR4 cells assessed as growth inhibition at 10 uM after 48 hrs by SRB assay relative to control; assay type: functional; details: OVCAR-4, 48 h, read-out: GI
[32] = Cytotoxicity against human HCT116 cells assessed as growth inhibition at 10 uM after 48 hrs by SRB assay relative to control; assay type: functional; details: HCT-116, 48 h, read-out: GI
[33] = Cytotoxicity against human MOLT4 cells assessed as growth inhibition at 10 uM after 48 hrs by SRB assay relative to control; assay type: functional; details: MOLT-4, 48 h, read-out: GI
[34] = Cytotoxicity against human COLO205 cells assessed as growth inhibition after 48 hrs by SRB assay; assay type: functional; details: COLO 205, 48 h
[35] = Cytotoxicity against human SK-MEL-2 cells assessed as growth inhibition after 48 hrs by SRB assay; assay type: functional; details: SK-MEL-2, 48 h
[36] = Cytotoxicity against human HL-60(TB) cells assessed as growth inhibition after 48 hrs by SRB assay; assay type: functional; details: HL-60, 48 h
[37] = Cytotoxicity against human UACC62 cells assessed as growth inhibition after 48 hrs by SRB assay; assay type: functional; details: UACC-62, 48 h
[38] = Cytotoxicity against human U251 cells assessed as growth inhibition after 48 hrs by SRB assay; assay type: functional; details: U-251, 48 h
[39] = Cytotoxicity against human SK-MEL-28 cells assessed as growth inhibition at 10 uM after 48 hrs by SRB assay relative to control; assay type: functional; details: SK-MEL-28, 48 h, read-out: GI
[40] = Cytotoxicity against human M14 cells assessed as growth inhibition at 10 uM after 48 hrs by SRB assay relative to control; assay type: functional; details: M14, 48 h, read-out: GI
[41] = Cytotoxicity against human IGROV1 cells assessed as growth inhibition after 48 hrs by SRB assay; assay type: functional; details: IGROV-1, 48 h
[42] = Cytotoxicity against human MCF7 cells assessed as growth inhibition after 48 hrs by SRB assay; assay type: functional; details: MCF7, 48 h

COc1ccc(CN2c3ccccc3Sc3ccccc32)cc1F
GI50 [1]: 806 nM
inhibition of growth at 10 µM [2]: 57%
inhibition of growth at 10 µM [3]: 83%
GI50 [4]: 304 nM
inhibition of growth at 10 µM [5]: 100%
IC50 [6]: 20700 nM
GI50 [7]: 377 nM
GI50 [8]: 612 nM
inhibition of growth at 10 µM [9]: 72%
inhibition of growth at 10 µM [10]: 61%
GI50 [11]: 354 nM
inhibition of growth at 10 µM [12]: 100%
GI50 [13]: 575 nM
GI50 [14]: 333 nM
inhibition of growth at 10 µM [15]: 84%
GI50 [16]: 369 nM
inhibition of growth at 10 µM [17]: 50%
GI50 [18]: 1220 nM
GI50 [19]: 300 nM
inhibition of growth at 10 µM [20]: 50%
inhibition of growth at 10 µM [21]: 95%
GI50 [22]: 1130 nM
inhibition of growth at 10 µM [23]: 64%
inhibition of growth at 10 µM [24]: 58%
inhibition of growth at 10 µM [25]: 78%
inhibition of growth at 10 µM [26]: 76%
GI50 [27]: 331 nM
inhibition of growth at 10 µM [28]: 82%
GI50 [29]: 663 nM
inhibition of growth at 10 µM [30]: 60%
inhibition of growth at 10 µM [31]: 51%
inhibition of growth at 10 µM [32]: 91%
inhibition of growth at 10 µM [33]: 73%
GI50 [34]: 299 nM
GI50 [35]: 405 nM
GI50 [36]: 262 nM
GI50 [37]: 499 nM
GI50 [38]: 529 nM
inhibition of growth at 10 µM [39]: 43%
inhibition of growth at 10 µM [40]: 100%
GI50 [41]: 1070 nM
GI50 [42]: 365 nM
